From US10722520B2, “Heterocyclic compounds and their use in preventing or treating bacterial infections” (MUTABILIS, priority 2016, dated 2020)
Counter-ions that a name gives are not always drawn. Like-named read-outs stand apart in the source and are kept apart here.

Legend:
E. cloacae P99 [1] = assay: MIC of compound alone, broth microdilution; format: cell-based; conditions: strain P99, compound alone; for MIC: Enterobacter cloacae, read-out: MIC compounds of the invention alone
In short: (§1)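 Visual end point: lowest concentration that blocked growth. Conditions: cation-adjusted Mueller-Hinton broth, 5×10^5 cfu/mL final inoculum of log-phase bacteria, 16-20 h, 35° C, ambient atmosphere.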

E. coli 190317 [2] = assay: MIC of compound alone, broth microdilution; format: cell-based; conditions: strain 190317, compound alone; for MIC: Escherichia coli, read-out: MIC compounds of the invention alone
In short: as §1

K. pneumoniae 6299 [3] = assay: MIC of compound alone, broth microdilution; format: cell-based; conditions: strain 6299, compound alone; for MIC: Klebsiella pneumoniae, read-out: MIC compounds of the invention alone
In short: as §1

K. pneumoniae BAA-1898 [4] = assay: MIC of compound alone, broth microdilution; format: cell-based; conditions: strain BAA-1898, compound alone; for MIC: Klebsiella pneumoniae, BAA1898, read-out: MIC compounds of the invention alone
In short: as §1

P. aeruginosa CIP107051 [5] = assay: MIC of compound alone, broth microdilution; format: cell-based; conditions: strain CIP107051, compound alone; for MIC: Pseudomonas aeruginosa, read-out: MIC compounds of the invention alone
In short: as §1

CMY-37 = CMY-37 (Citrobacter freundii, UniProt P05193); conditions: read-out: IC50 β-lactamase CMY-37
AmpC (P99) = AmpC (P99) (Enterobacter cloacae, UniProt P05364); assay: biochemical
AmpC (PAE) = AmpC (PAE) (Pseudomonas aeruginosa, UniProt P24735); assay: biochemical
OXA-15 [6] = molecular target: T1, OXA-15 (Pseudomonas aeruginosa, UniProt Q51574); assay: biochemical
TEM-1 = TEM-1 (Escherichia coli, UniProt P62593)
SHV-1 = SHV-1 (Klebsiella pneumoniae, UniProt P0AD64)
CTX-M-15 = CTX-M-15 (Escherichia coli, UniProt Q9EXV5)
KPC-2 = KPC-2 (Klebsiella pneumoniae, UniProt Q9F663)
OXA-1 = OXA-1 (Escherichia coli, UniProt P13661)
OXA-11 = OXA-11 (Pseudomonas aeruginosa, UniProt Q06778)
OXA-48 = OXA-48 (Klebsiella pneumoniae, UniProt Q6XEC0)
E. cloacae P99 [7] = assay: MIC of ceftazidime (CAZ) at fixed concentration of compound (synergy), broth microdilution; format: cell-based; conditions: strain P99; MIC of CAZ, compound fixed at 4 μg/mL
Protocol: (§2) Log phase bacterial suspensions were adjusted to a final density of 5×10^5 cfu/mL in cation-adjusted Mueller-Hinton broth (Becton-Dickinson) and added to each well (98 μL). Microplates were incubated for 16-20 h at 35° C. in ambient air. The MIC of the compounds was defined as the lowest concentration of said compounds that prevented bacterial growth as read by visual inspection.

E. coli 190317 [8] = assay: as above; format: cell-based; conditions: strain 190317; MIC of CAZ, compound fixed at 4 μg/mL
Protocol: as §2

K. pneumoniae 6299 [9] = assay: as above; format: cell-based; conditions: strain 6299; MIC of CAZ, compound fixed at 4 μg/mL
Protocol: as §2

K. pneumoniae BAA-1898 [10] = assay: as above; format: cell-based; conditions: strain BAA-1898; MIC of CAZ, compound fixed at 4 μg/mL
Protocol: as §2

P. aeruginosa CIP107051 [11] = assay: as above; format: cell-based; conditions: strain CIP107051; MIC of CAZ, compound fixed at 4 μg/mL
Protocol: as §2

OXA-15 [12] = molecular target: T1, OXA-15; conditions: read-out: IC50 β-lactamase OXA-15; class (D); nitrocefin 200 μM, 30-min pre-incubation, enzyme 0.4 nM
[13] = read-out: IC50 β-lactamase TEM-1, class (A), nitrocefin 200 μM, 30-min pre-incubation, enzyme 0.1 nM
[14] = read-out: IC50 β-lactamase SHV-1, class (A), nitrocefin 200 μM, 30-min pre-incubation, enzyme 0.075 nM
[15] = read-out: IC50 β-lactamase CTX-M-15, class (A), nitrocefin 200 μM, 30-min pre-incubation, enzyme 0.4 nM
[16] = read-out: IC50 β-lactamase KPC-2, class (A), nitrocefin 200 μM, 30-min pre-incubation, enzyme 1 nM
[17] = read-out: IC50 β-lactamase OXA-1, class (D), nitrocefin 200 μM, 30-min pre-incubation, enzyme 0.2 nM
[18] = read-out: IC50 β-lactamase OXA-11, class (D), nitrocefin 200 μM, 30-min pre-incubation, enzyme 1.2 nM
[19] = read-out: IC50 β-lactamase OXA-48, class (D), nitrocefin 200 μM, 30-min pre-incubation, enzyme 0.3 nM

Compound | MIC (E. cloacae P99 [1]) [µg/mL] | MIC (E. coli 190317 [2]) [µg/mL] | MIC (K. pneumoniae 6299 [3]) [µg/mL] | MIC (K. pneumoniae BAA-1898 [4]) [µg/mL] | MIC (P. aeruginosa CIP107051 [5]) [µg/mL] | IC50 (AmpC (P99)) [nM] | IC50 (AmpC (PAE)) [nM] | IC50 (OXA-15 [6]) [nM] | IC50 (TEM-1) [nM] | IC50 (SHV-1) [nM] | IC50 (CTX-M-15) [nM] | IC50 (KPC-2) [nM] | IC50 (OXA-1) [nM] | IC50 (OXA-11) [nM] | IC50 (OXA-48) [nM] | MIC compounds of the invention alone (E. cloacae P99 [1]) [µg/mL] | MIC compounds of the invention alone (E. coli 190317 [2]) [µg/mL] | MIC compounds of the invention alone (K. pneumoniae 6299 [3]) [µg/mL] | MIC compounds of the invention alone (K. pneumoniae BAA-1898 [4]) [µg/mL] | MIC compounds of the invention alone (P. aeruginosa CIP107051 [5]) [µg/mL] | other results
O=C(N[C@@H]1CCNC1)c1ccn(C2=CC3CN(C2)C(=O)N3OS(=O)(=O)O)n1 (stereo partly drawn) [Example 83, [7-oxo-3-[3-[[(3R)-pyrrolidin-3-yl]carbamoyl]pyrazol-1-yl]-1,6-diazabicyclo[3.2.1]oct-3-en-6-yl]hydrogen sulfate] | 8 | 2 | 32 | 8 | > 32 | 24 | 230 | 32 | 0.27 | 3.8 | 0.64 | 7.9 | 37 | 24 | 3.2 | – | – | – | – | – | IC50 (CMY-37; class (C), nitrocefin 200 μM, 30-min pre-incubation, enzyme 0.2 nM): 63 nM
O=C(Nc1nncs1)c1ccn(C2=CC3CN(C2)C(=O)N3OS(=O)(=O)[O-])n1.[Na+] (centres unmarked) [Example 84, sodium [7-oxo-3-[3-(1,3,4-thiadiazol-2-ylcarbamoyl)pyrazol-1-yl]-1,6-diazabicyclo[3.2.1]oct-3-en-6-yl]sulfate] | > 32 | > 32 | > 32 | > 32 | > 32 | 25 | 160 | 98 | 0.78 | 2.7 | 1 | 8.5 | 150 | 22 | 7.2 | – | – | – | – | – | IC50 (CMY-37): 20 nM
sodium (7-oxo-3-(3-(methoxycarbamoyl)-pyrazol-1-yl)-1,6-diazabicyclo[3.2.1]oct-3-en-6-yl) sulfate and sodium (7-oxo-3-(5-(methoxycarbamoyl)-pyrazol-1-yl)-1,6-diazabicyclo[3.2.1]oct-3-en-6-yl) sulfate [Example 27] | – | – | – | – | – | – | – | – | – | – | – | – | – | – | – | 16 | 8 | 32 | 32 | >32 | MIC combination of CAZ and compounds of the invention at 4 μg/mL (E. cloacae P99 [7]): 2 µg/mL; MIC combination of CAZ and compounds of the invention at 4 μg/mL (E. coli 190317 [8]): 0.25 µg/mL; MIC combination of CAZ and compounds of the invention at 4 μg/mL (K. pneumoniae 6299 [9]): 0.5 µg/mL; MIC combination of CAZ and compounds of the invention at 4 μg/mL (K. pneumoniae BAA-1898 [10]): 16 µg/mL; MIC combination of CAZ and compounds of the invention at 4 μg/mL (P. aeruginosa CIP107051 [11]): 16 µg/mL; IC50 (OXA-15 [12]): 110 nM; IC50 (TEM-1; [13]): 1.1 nM; IC50 (SHV-1; [14]): 4.8 nM; IC50 (CTX-M-15; [15]): 1.2 nM; IC50 (KPC-2; [16]): 10 nM; IC50 (OXA-1; [17]): 130 nM; IC50 (OXA-11; [18]): 69 nM; IC50 (OXA-48; [19]): 6.1 nM
sodium [3-[3-[2-[tert-butyl(dimethyl)silyl]oxyethyl]pyrazol-1-yl]-7-oxo-1,6-diazabicyclo[3.2.1]oct-3-en-6-yl]sulfate [Example 69] | – | – | – | – | – | – | – | – | – | – | – | – | – | – | – | 32 | 4 | 32 | 32 | >32 | MIC combination of CAZ and compounds of the invention at 4 μg/mL (E. cloacae P99 [7]): 1 µg/mL; MIC combination of CAZ and compounds of the invention at 4 μg/mL (E. coli 190317 [8]): ≤0.25 µg/mL; MIC combination of CAZ and compounds of the invention at 4 μg/mL (K. pneumoniae 6299 [9]): 1 µg/mL; MIC combination of CAZ and compounds of the invention at 4 μg/mL (K. pneumoniae BAA-1898 [10]): 64 µg/mL; MIC combination of CAZ and compounds of the invention at 4 μg/mL (P. aeruginosa CIP107051 [11]): 8 µg/mL; IC50 (OXA-15 [12]): 230 nM; IC50 (TEM-1; [13]): 0.61 nM; IC50 (SHV-1; [14]): 2.3 nM; IC50 (CTX-M-15; [15]): 0.95 nM; IC50 (KPC-2; [16]): 32 nM; IC50 (OXA-1; [17]): 310 nM; IC50 (OXA-11; [18]): 120 nM; IC50 (OXA-48; [19]): 14 nM
